Results from patent publication US20050215614A1, “Substituted indoles and their use as hcv inhibitors” (Rigel Pharmaceuticals, Inc., priority 2003, published 2005).

Key:
Format in all cases: cell-based
HCV replicon [1] = assay: HCV Replicon Assay (luciferase, 5-2 Luc replicon cells); details: 5-2 Luc replicon cells (Huh7), 24-48 hours with compound, luciferase counts
Outline: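 Huh7-derived 5-2 Luc replicon cells were seeded at 5000-7500 cells/well, grown 24 h at 37° C. and 5% CO2, then exposed to serial compound concentrations for 24-48 hours.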

HCV replicon [2] = assay: TaqMan RT-PCR Assay (9-13 replicon cells); details: 24-48 hours with compound
Method: Actively dividing 9-13 replicon cells were seeded at the density of 3×10^4 cells/well in the volume of 1 ml/well into 24 well plate(s). The cells were then incubated at 37° C. and 5% CO2 for 24
Various concentrations of compounds (in the volume of 10 μl) were added into each well 24 hours after seeding the cells. The cells were incubated with the compounds for another 24-48 hours.
After incubating the 9-13 replicon cells with the compounds for 24-48 hours, media were aspirated off and RNA samples were prepared from each well.
TaqMan® (Roche Molecular Systems) one step RT-PCR was performed using the RNA samples according to the manufacturer's manual. Briefly, properly diluted RNA sample, upstream primer, downstream primer, FAM-labeled probe oligo were mixed and water was added to make up the volume to 25 μl. Equal volume of 2× TaqMan Master Mix were added and the reaction was performed in an ABI Prism 7700 Sequence Detector (Applied Biosystems).

HCV replicon [3] = assay: Immunoblotting Assay (9-13 replicon cells); details: 9-13 replicon cells (Huh7), 48 hours with compound
Method: Actively dividing 9-13 replicon cells (Huh7 cells comprising an HCV replicon) were seeded at the density of 1×10^5 cells/well in the volume of 2 ml/well into 6 well plate(s). The cells were then incubated at 37° C. and 5% CO2 for 24 hours.
Various concentrations of compounds (in the volume of 10 μl) were added into each well 24 hours after seeding the cells. The cells were incubated with the compounds for another 48 hours.
Protein samples were prepared from the cultured cells and resolved on a SDS-PAGE gel.
After electrophoresis, the protein samples on the SDS-PAGE gel were transferred to a nitrocellulose membrane.
The membrane was blocked with 5% non-fat milk in PBS for 1 hr at room temperature.
Primary antibody incubation was performed for 1 hour at room temperature before the membrane was washed for 3 times with PBST (PBS plus 0.1% Tween 20), 15 minutes each.
Horse Radish Peroxidase conjugated secondary antibody incubation was performed for 1 hour at room temperature before the membrane was washed for 3 times with PBST (PBS plus 0.1% Tween 20), 15 minutes each.
The membrane was then soaked in substrate solution (Pierce) and exposed to a film.

Row | Compound | Activity (concentration of inhibitory activity) (HCV replicon [1]) | Activity (concentration of inhibitory activity) (HCV replicon [2]) | Activity (concentration of inhibitory activity) (HCV replicon [3])
1 | Cc1cc2cc(NC(=O)C3CCCC3)ccc2n1C(=O)c1c(Cl)cccc1Cl [Compound 16a-1, 5-Cyclopentanecarbonylamino-1-(2′,6′-dichlorobenzoyl)-2-methylindole] | a (“a” indicates inhibitory activity at a concentration of less than 10 micromolar) | a (“a” indicates inhibitory activity at a concentration of less than 10 micromolar) | 
2 | CC(C)(C)c1cc2cc(NC(=O)c3cccs3)ccc2[nH]1 [Compound 281] | a (“a” indicates inhibitory activity at a concentration of less than 10 micromolar) |  | a (“a” indicates inhibitory activity at a concentration of less than 10 micromolar)
